Reference: patent US12234233B2, “Crystal form of phosphodiesterase inhibitor, preparation method therefor and use thereof” (TRANSTHERA SCIENCES (NANJING), INC., priority 2019, dated 2025)
Where two headings read alike, the source gives them in different places.

Columns and labels:
[1] = Pharmacokinetic evaluation in rats; type: in vivo, male SD rats
Description: Test substances: the compound of formula (I) was prepared by example 1 of the present invention, and the crystal form I was prepared by example 2 of the present invention.
Administration to Animals and Sample Collection:
the compound of formula (I) for the experiment was dissolved with 2% DMSO+10% PEG400+88% (28% HP-3-CD) physiological saline to prepare a solution; the solution of the test substance was administered to SD rats by gavage at a dose of 5.0 mg/kg; and the blood sampling time points were 15 min, 30 min, 1 h, 2 h, 4 h, 6 h, 8 h and 24 h after administration.
The compound of formula (I) for the experiment was dissolved with 2% DMSO+10% PEG400+88% (28% HP-3-CD) physiological saline to prepare a solution; the solution of the test substance was administered to SD rats by intravenous bolus at a dose of 1 mg/kg; and the blood sampling time points were 5 min, 15 min, 30 min, 1 h, 2 h, 4 h, 6 h, 8 h and 24 h after administration.
The crystal form I for the experiment was dissolved with 5% DMSO+10% PEG400+85% (20% captisol) physiological saline solution to prepare a solution; the solution of the test substance was administered to SD rats by gavage at a dose of 60.0 mg/kg; and the blood sampling time points were 15 min, 30 min, 1 h, 2 h, 4 h, 8 h, 24 h, 30 h and 48 h after administration.
The crystal form I for the experiment was dissolved with 2% DMSO+10% PEG400+88% (28% HP-β-CD) physiological saline to prepare a solution; the solution of the test substance was administered to SD rats by intravenous bolus at a dose of 5 mg/kg; and the blood sampling time points were 5 min, 15 min, 30 min, 1 h, 4 h, 8 h, 12 h and 24 h after administration.
Compound of formula (I): the ordinary SD rats were used and fixed; the tails of the rats were heated in a water bath 10 minutes before each time point; and about 100 μL of blood was collected via a tail vein, and then placed in an anticoagulation tube containing EDTA-K2. The blood sample was centrifuged at 8000 rpm at 4° C. for 6 min to obtain a plasma sample, which was prepared within 30 minutes after blood collection. The plasma was stored in a refrigerator at −80° C. before the test.
Crystal form I: the rats were subjected to jugular vein cannulation (JVC); each time, about 0.35 ml of blood was collected from the rats via a jugular vein cannula into a centrifuge tube containing 5 μl of 15% EDTA-K2; the mixture was gently mixed to obtain a homogeneous mixture, and then the centrifuge tube was placed in an ice bath immediately. Within 1 hour after collecting whole blood, the mixture was centrifuged at 4° C. and 2400×g for 5 minutes, and the supernatant was immediately collected to obtain a plasma sample. The plasma was stored in a refrigerator at −80° C. before the test.
the plasma sample to be tested was taken out from the −80° C. refrigerator, subjected to natural melting at room temperature, and then vortexed for 5 min; […] of the plasma sample was precisely pipetted into a 1.5 mL centrifuge tube; […] of the internal standard working solution (tolbutamide in methanol) at a concentration of 100 ng/mL was added, and the mixture was mixed homogeneously; the homogeneous mixture was vortexed for 5 min, and then centrifuged at 12000 rpm for 5 min; 50 μL of the supernatant was precisely pipetted into a 96-well plate pre-filled with 150 μL of water/well; and the plate was vortexed for 5 min for homogenization, and subjected to LC-MS/MS assay, with a sample loading volume of 5 μL. […]

[2] = Stability test of crystal form I (influencing factors); type: physicochemical
Description: Test substances: the crystal form I was prepared by example 2 of the present invention.
Method: the appropriate amount of crystal form I samples were taken and placed openly at 60° C. and RH 92.5% under light; and the samples were collected on day 5, day 10, and day 30 to investigate changes in the trait, content, and moisture of the samples.

[3] = Stability test of different crystal forms; type: physicochemical
Description: Test substances: the crystal form I was prepared by example 2 of the present invention, the crystal form II was prepared by example 16 of the present invention, the crystal form III was prepared by example 20 of the present invention, the crystal form IV was prepared by example 24 of the present invention, the crystal form V was prepared by example 25 of the present invention, the crystal form VI was prepared by example 27 of the present invention, and the crystal form VII was prepared by example 31 of the present invention.
Method: the appropriate amount of different test substances were taken, and placed at 105° C. for 3 days, and at 60° C. and RH 92.5% under light for 5 days and 10 days, respectively; and the samples were collected on day 0, day 3, day 5 and day 10 to investigate the changes in the trait and content of the samples.
Table 5 and Table 6 show the results of the trait and content after placement at 105° C. for 3 days. Table 7 and Table 8 show the results of the trait and content after placement at 60° C. and RH 92.5% under light for 5 days. Table 9 and Table 10 show the results of the trait and content after placement at RH 92.5% under light for 10 days.

[4] = male SD rats, gavage 60.0 mg/kg
[5] = male SD rats, intravenous bolus 5 mg/kg
[6] = Placed openly at 60° C. for 5 days
[7] = Placed openly at 60° C. for 10 days
[8] = Placed openly at 60° C. for 30 days
[9] = Placed openly at RH 92.5% for 5 days
[10] = Placed openly at RH 92.5% for 10 days
[11] = Placed openly at RH 92.5% for 30 days
[12] = Placed openly under light for 5 days
[13] = Placed openly under light for 10 days
[14] = placed openly under light for 30 days

Question: What does the source list for `CCc1cc2c(N3CCC(C)(OC)CC3)c(C#N)c(=O)[nH]c2cn1` [Crystal form I, 6-ethyl-4-(4-methoxy-4-methylpiperidin-1-yl)-2-oxo-1,2-dihydro-1,7-diazanaphthal ene-3-carbonitrile]?
Answer: Tmax ([1]; Sprague-Dawley, rat, plasma, po, male SD rats, gavage 60.0 mg/kg): 1.67 h; AUC(0-t) ([1]; Sprague-Dawley, rat, plasma, po, male SD rats, gavage 60.0 mg/kg, read-out: AUClast PO): 40100 ng·h/mL; AUC(0-t) ([1]; Sprague-Dawley, rat, plasma, male SD rats, intravenous bolus 5 mg/kg, read-out: AUClast iv): 2450 ng·h/mL; pharmacokinetic characteristics ([1]; conclusion from Table 2, rats): excellent pharmacokinetic characteristics; AUClast PO/Dose [1, 4]: 667.8 h*ng/mL per mg/kg; tz1/2 PO [1, 4]: 3.91 h; AUClast iv/Dose [1, 5]: 489.4 h*ng/mL per mg/kg; Cl_obs iv [1, 5]: 35.5 mL/min/kg; Vz_obs iv [1, 5]: 0.898 L/kg; tz1/2 iv [1, 5]: 0.453 h; Content ([2]; 0 day): 99.7%; Moisture ([2]; 0 day): 0.08%; Trait ([2]; 0 day): Yellow powder; Content [2, 6]: 99.8%; Moisture [2, 6]: 0.06%; Trait [2, 6]: Yellow powder; Content [2, 7]: 99.8%; Moisture [2, 7]: 0.10%; Trait [2, 7]: Yellow powder; Content [2, 8]: 100.1%; Moisture [2, 8]: 0.12%; Trait [2, 8]: Yellow powder; Content [2, 9]: 99.7%; Moisture [2, 9]: 0.04%; Trait [2, 9]: Yellow powder; Content [2, 10]: 100.3%; Moisture [2, 10]: 0.09%; Trait [2, 10]: Yellow powder; Content [2, 11]: 100.5%; Moisture [2, 11]: 0.09%; Trait [2, 11]: Yellow powder; Content [2, 12]: 99.7%; Moisture [2, 12]: 0.06%; Trait [2, 12]: Yellow powder; Content [2, 13]: 99.3%; Moisture [2, 13]: 0.13%; Trait [2, 13]: Yellow powder; Content [2, 14]: 100.0%; Moisture [2, 14]: 0.09%; Trait [2, 14]: Yellow powder; Content ([3]; 0 day): 99.7%; Trait ([3]; 0 day): Yellow powder; Content ([3]; Placed at 60° C. for 5 days): 99.8%; Content ([3]; Placed at RH 92.5% for 5 days): 99.7%; Content ([3]; Placed at RH 92.5% for 10 days): 100.3%; Trait ([3]; Placed at RH 92.5% for 10 days): Yellow powder; Content ([3]; Placed under light for 5 days): 99.7%; Content ([3]; Placed under light for 10 days): 99.3%; Trait ([3]; Placed under light for 10 days): Yellow powder
